Source: patent publication US8501802B2, “Co-crystals of duloxetine and COX-INHIBITORs for the treatment of pain” (Laboratorios del Dr. Esteve, S.A., priority 2008, dated 2013)
Structures can show the parent of a compound that is named as a salt.

Conditions: for Δ % weight 24 h / Δ % weight 48 h / Δ % weight 6 days: 64±5% relative humidity, 22±2° C.; for KF (t = 0): Karl Fischer value at the beginning of the study; for Hygroscopicity class according to the scale: PharmaEuropa scale of % incorporation of water
Procedure: The objective was to measure the hygroscopicity of the salts of the present invention, and comparing it with the one of the known salt of each counter part of the salts. The increasing of the weight will be measured in order to evaluate the incorporation of water in the samples, together with the Karl Fischer factor.
The scale is the following:
Preparation of the Humidity chamber: A supersaturated solution of sodium nitrite (45 g/50 ml) is prepared and introduced in a humidification chamber (samplaterecord). The chamber is maintained at a temperature of 22±2° C. during 24 hours before use, and humidity is controlled each day.
The variation of the weight is controlled and the following percentage is calculated: Δ%weight=(Pn−P1)/P1×100 wherein: P1 is the initial weight, Pn is the weight measured for the sample.

SMILES	Δ % weight 24 h	Δ % weight 48 h	Δ % weight 6 days	KF (t = 0)	Hygroscopicity class according to the scale
CNCC[C@H](Oc1cccc2ccccc12)c1cccs1.CNCC[C@H](Oc1cccc2ccccc12)c1cccs1.COc1ccc2cc([C@H](C)C(=O)O)ccc2c1.COc1ccc2cc([C@H](C)C(=O)O)ccc2c1.COc1ccc2cc([C@H](C)C(=O)O)ccc2c1	0%	0.09%	0.13%	0.36	not hygroscopic
CNCC[C@H](Oc1cccc2ccccc12)c1cccs1 [Duloxetine HCl]	0.19%	0.26%	0.18%	0.33	not hygroscopic
COc1ccc2cc([C@H](C)C(=O)[O-])ccc2c1.[Na+] [sodium naproxen]	14.39%	14.39%	14.3%	1.04	hygroscopic
